Data published in article PMC9241695, “Selective Metal Chelation by a Thiosemicarbazone Derivative Interferes with Mitochondrial Respiration and Ribosome Biogenesis in Candida albicans” (Microbiology Spectrum, 2022).
≈ marks a conversion by molar mass, not a printed value.

Tests used:
C. albicans SC5314 [1] = test: Drug resistance study by serial passage; assay type: cell-based, Candida albicans; conditions: RPMI 1640 medium, 40-day period, passages at 0.5 × MIC
C. albicans SC5314 [2] = test: Antifungal susceptibility testing, microbroth dilution MIC; assay type: cell-based; conditions: Candida albicans, SC5314; C. albicans wild-type strain; RPMI1640, 35°C, 24 h; read-out: MIC (μg/mL) against fungi SC5314
How it was run: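 CLSI microbroth dilution in RPMI1640, final drug range 0.0156–64 μg/mL. Inocula 1 × 10^3 CFU/mL for C. albicans and C. neoformans, 1 × 10^4 CFU/mL for A. fumigatus; 35°C for 24 h (C. albicans) or 48 h (C. neoformans, A. fumigatus). MIC read as visible growth inhibition versus control, in duplicate.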

C. albicans SC5314 [3] = test: CCK-8 reduction assay, mitochondrial dehydrogenase activity; assay type: cell-based, Candida albicans; conditions: 0.125 μg/mL to 5 μg/mL
Experimental: The Cell Counting Kit-8
(CCK-8) assay is used to measure the dehydrogenase activity in the mitochondria of C. albicans or mammalian cells. C. albicans SC5314 (5 × 10^6 cells/mL in RPMI1640 medium) were treated with different concentrations of 19ak in 96-well plates at 30°C for 12 h or 48 h. 10 μL of CCK-8 solution was added to each well. After an additional 2 h of incubation, OD450 in each well was detected with a microplate reader. […]

C. albicans SC5314 [4] = test: RNA-seq transcriptional analysis; assay type: cell-based, Candida albicans
Experimental: C. albicans SC5314 cells were inoculated into RPMI 1640 medium at a concentration of 1 × 10^7 cells/mL and incubated at 30°C for 6 h. The cells were then harvested, and RNA extraction was performed with the Yeast RNA Kit (OMEGA, Guangzhou, China). RNA purity was evaluated using a Nanodrop-2000, and RNA integrity was assessed using the RNA Nano 6000 detection kit. RNA-Seq libraries are prepared using NEB Next Ultra RNA Library Prep Kit (NEB, MA, USA) for Illumina. The cDNA library quality was quantified first by using Qubit 2.0 Fluorometer, detected on Agilent 2100 bioanalyzer. Clustering was performed in the cBot cluster generation system. After cluster generation, the library preparations were sequenced on the Illumina Novaseq platform. Library construction and sequencing were performed by Novogene (Beijing, China). Each sample was analyzed in triplicate.
The raw data in fastq format were first processed by an internal perl script. In this step, clean data were obtained by applying various processing methods. […] The clean reads were individually mapped to the C. albicans SC5314 reference genome using HISAT2 (v2.0.5). The fragments per kilobase of transcript per million mapped reads (FPKM) value was calculated for each gene, and the read counts were mapped to the genes. […] Genes with an adjusted P value < 0.05 and |log2FoldChange| > 1 as detected by DESeq2 were considered DEGs. […]

HepG2 = test: Intracellular ferrous and zinc contents in mammalian cells (FeRhoNox-1, Zinbo-5); assay type: cell-based, human; conditions: 5 μg/mL, 12 h
Experimental: (§1) FeRhoNox-1 is a commercially available fluorescent probe that specifically binds Fe^2+ and is used to measure intracellular Fe^2 + content. C. albicans SC5314 cells cultured overnight were diluted to roughly 1 × 10^6 cells/mL in RPMI 1640 medium and challenged with various doses of 19ak for 6 h. Next, the cells were fixed with 4% paraformaldehyde for 1 h. After washing three times with PBS, the cells were stained with 5 μM FeRhoNox-1 for 30 min and analyzed by flow cytometry (Becton, Dickinson, CA, USA). Mammalian cells culture is according to the method described in Cytotoxicity testing which was described in Supplemental material in detail. After 12 h of treatment with different concentrations of 19ak, the supernatant was discarded and washed three times with PBS. Cells were collected after staining with FeRhoNox-1 for 30 min in the dark, and the fluorescence intensity of stained cells was analyzed by flow cytometry.
(§2) C. albicans SC5314 cells grown overnight were pelleted, washed three times with PBS buffer, and resuspended to obtain an OD600 of 2.0. Next, the cells were incubated with various concentrations of 19ak in 96-well plates at 30°C for 6 h, followed by incubation with 10 μM Zinbo-5 for 30 min. Finally, fluorescence was measured in a microplate reader (excitation at 355 nm, emission at 485 nm). […]

16HBE = test: as above; assay type: cell-based, human; conditions: 5 μg/mL, 12 h
Experimental: as §1, §2

C. albicans SC5314 [5] = test: MIC of 19ak in the presence of H2O2; assay type: cell-based; conditions: Candida albicans, read-out: MIC against C. albicans SC5314 (Table S3)
Experimental: Influence of oxidant or antioxidant molecules on 19ak activity. The MIC of
19ak in the presence of 1–2 mM H2O2 was measured using the broth microdilution
assay as described above. […]

C/C(=N\NC(=S)N(C)C)c1ccccn1 [Compound 19ak]
Change of MIC after repeated exposure (C. albicans SC5314 [1]): did not alter the MIC
MIC (C. albicans SC5314 [2]): 0.125 µg/mL (≈ 0.562 µM)
Mitochondrial dehydrogenase activity of C. albicans (CCK-8, absorbance at 450 nm) (C. albicans SC5314 [3]): decreased accordingly in a dose-dependent manner
Expression of genes involved in iron and zinc acquisition (C. albicans SC5314 [4]; high dose (2 μg/mL)): downregulated
Expression of genes involved in iron and zinc acquisition (C. albicans SC5314 [4]; low dose (0.5 μg/mL)): strongly induced
Ferrous and zinc contents in HepG2 cells (HepG2): almost had no effects
Ferrous and zinc contents in 16HBE cells (16HBE): almost had no effects
MIC (C. albicans SC5314 [5]; SC5314, +1 mM H2O2): 0.25 mg/L
MIC (C. albicans SC5314 [5]; SC5314, +2 mM H2O2): 0.5 mg/L
MIC (C. albicans SC5314 [5]; SC5314, without H2O2): 0.125 mg/L
